Experiments:
[1] = test system: sandwich-cultured human hepatocytes; assay: Effect of ERAs on endogenous glycocholic acid (GCA) distribution in sandwich-cultured human hepatocytes; assay type: cell-based; settings: 24 h, mean ± standard error, n=3 human livers
Experimental: (§1) Sandwich-cultured human hepatocytes were obtained from Celsis/IVT (Baltimore, MD) or Life Technologies (Durham, NC). Donors were male (n = 3) and female (n = 1) between the ages of 31 and 62 years old. Hepatic uptake, biliary excretion and in vitro biliary clearance (Clb) were determined using the B-CLEAR® hepatocyte sandwich culture model as described by Liu et al., 1999 [34]. In this system, hepatocytes form functional bile canalicular networks while maintaining the expression and function of key uptake and efflux transporters. The canalicular system of bile pockets remains separate from the cellular culture media due to tight junctions between cells. The integrity of these tight junctions is maintained in the presence of calcium (Plus (+) buffer) while in the absence of calcium (Minus (−) buffer), these tight junctions open and release the contents of the canalicular network into the media.
(§2) Incubation solutions containing ERA (1, 10 and 100 µM) were prepared in cell culture medium. On the sixth day of culturing of the sandwich-cultured hepatocytes, cell culture medium was removed from the wells and incubation solutions containing the test ERAs were added to the cells. The cells were incubated with ERA solution for 24 h at 37°C. After the exposure, the incubation solutions were removed and the cells were rinsed with Plus (+) or Minus (−) buffer. The buffer solutions were then removed and the cells were incubated with fresh Plus (+) or Minus (−) buffer for 5 min at 37°C. Following this 5 minute incubation, the buffer solutions were collected and any remaining buffers were removed. The cells were then washed three times with ice-cold Plus (+) buffer and the plates were frozen at −80°C until processed for bioanalysis.
(§3) Study samples were stored in their original 24-well plates at −80°C until prepared for analysis. A volume of 500 µL of cell lysis solution (70∶30 methanol:water) containing 25 nM internal standard was added to each well and mixed for 20 min of mixing. The volume in each well was then transferred to a 96-well filter plate stacked on a Greiner deep well collection plate. The filter plate/collection plate was then centrifuged at 2000 rcf for 5 min. The filtrate was then evaporated to dryness under nitrogen. Samples were reconstituted in 200 µL of sample diluent (60∶40 methanol:10 mM ammonium acetate, native pH), sealed, and placed on a plate shaker for 15 min. These samples were then transferred to a Whatman 96-well 0.45 µm PVDF filter plate stacked on a Costar 3956 plate (HPLC injection plate), centrifuged at 2000 rcf for 2–3 min, and sealed with a silicon cap mat prior to LC-MS/MS analysis. d8-TCA standard spiking solutions were prepared in 50∶50 methanol:water. For a given lysate standard or control, 10 µL was added to each well of a previously frozen analytical plate. Standards representing 0.5–100 pmoles/well and QC’s at the LLQ and ULQ were prepared. These lysate standards and controls were then further processed as described above for unknown study samples. Prepared samples were filtered and analyzed by LC-MS/MS using a Shimadzu binary HPLC system (Columbia, MD) and tandem mass spectrometry using Thermo Electron TSQ® Quantum Discovery MAX™ (Waltham, MA) with an Ion Max ESI source operating in negative ion electrospray ionization mode. Results for unknowns and QCs were calculated using a standard curve based on an internal standard processing method.
Statistical comparisons across ERA treatments were performed using analysis of variance (ANOVA) with Fisher’s PLSD post hoc analysis (Statview 5.0, SAS Institute, Cary NC); statistical significance was considered to be P<0.05. All mass values were normalized to mg protein by taking the average protein mass in the taurocholate plate determined using a BCA protein assay (Pierce Biotechnology, Rockford, IL). […]

[2] = test system: sandwich-cultured human hepatocytes; assay: Effect of ERAs on endogenous glycochenodeoxycholic acid (GCDCA) distribution in sandwich-cultured human hepatocytes; assay type: cell-based; settings: 24 h, mean ± standard error, n=3 human livers
Experimental: as §1, with “Donors were male (n = 3) and female (n = 1) between the ages of 31 and 62 years old.” left out
as §2, §3
Statistical comparisons across ERA treatments were performed using analysis of variance (ANOVA) with Fisher’s PLSD post hoc analysis (Statview 5.0, SAS Institute, Cary NC); statistical significance was considered to be P<0.05. All mass values were normalized to mg protein by taking the average protein mass in the taurocholate plate determined using a BCA protein assay (Pierce Biotechnology, Rockford, IL). Cellular accumulation determined in Minus (−) buffer (Accumulation Minus (−) Buffer) represents the total mass of analyte inside the hepatocyte at the end of the incubation time period. […]

[3] = test system: sandwich-cultured human hepatocytes; assay: Hepatic disposition (intracellular accumulation) of ERAs in sandwich-cultured human hepatocytes; assay type: in vitro ADME; settings: sandwich-cultured human hepatocytes, 1, 10 and 100 µM, 10 min, n = 3 donors
Experimental: as §1
Incubation solutions containing ERA (1, 10 and 100 µM) were prepared in Plus (+) buffer. Cell culture medium was removed from the wells and the cells were washed twice with Plus (+) or Minus (−) buffer. The wash solutions were then removed and replaced with fresh Plus (+) or Minus (−) buffer. The cells were conditioned for 10 min at 37°C. After the 10 min exposure, the buffer solutions were removed and replaced with the incubation solutions and incubated for 10 min at 37°C. Following 10 min incubation, the incubation solutions were removed and the cells were then washed three times with ice-cold Plus (+) Buffer. The plates were frozen at −80°C until processed for bioanalysis.
Study samples were stored in their original 24-well plates at −80°C until prepared for analysis. A volume of 500 µL of cell lysis solution (70∶30 methanol:water) containing 25 nM internal standard was added to each well and mixed for 20 min of mixing. […] Prepared samples were filtered and analyzed by LC-MS/MS using a Shimadzu binary HPLC system (Columbia, MD) and tandem mass spectrometry using Thermo Electron TSQ® Quantum Discovery MAX™ (Waltham, MA) with an Ion Max ESI source operating in negative ion electrospray ionization mode. Results for unknowns and QCs were calculated using a standard curve based on an internal standard processing method.
Data calculations were performed using Microsoft Excel, 2010 with all values reported as mean ± standard deviation (SD). […] All mass values were normalized to mg protein by taking the average protein mass in the taurocholate plate determined using a BCA protein assay (Pierce Biotechnology, Rockford, IL). Cellular accumulation determined in Minus (−) buffer (Accumulation Minus (−) Buffer) represents the total mass of analyte inside the hepatocyte at the end of the incubation time period. […]

Row | SMILES | GCA BEI (% Control) ([1]; 1 µM) | GCA Cellular Accumulation (% Control) ([1]; 1 µM) | GCA Medium Concentration (% Control) ([1]; 1 µM) | GCA Total Accumulation (% Control) ([1]; 1 µM) | GCA BEI (% Control) ([1]; 10 µM) | GCA Cellular Accumulation (% Control) ([1]; 10 µM) | GCA Medium Concentration (% Control) ([1]; 10 µM) | GCA Total Accumulation (% Control) ([1]; 10 µM) | GCA BEI (% Control) ([1]; 100 µM) | GCA Cellular Accumulation (% Control) ([1]; 100 µM) | GCA Medium Concentration (% Control) ([1]; 100 µM) | GCA Total Accumulation (% Control) ([1]; 100 µM) | GCDCA BEI (% Control) ([2]; 1 µM) | GCDCA Cellular Accumulation (% Control) ([2]; 1 µM) | GCDCA Medium Concentration (% Control) ([2]; 1 µM) | GCDCA Total Accumulation (% Control) ([2]; 1 µM) | GCDCA BEI (% Control) ([2]; 10 µM) | GCDCA Cellular Accumulation (% Control) ([2]; 10 µM) | GCDCA Medium Concentration (% Control) ([2]; 10 µM) | GCDCA Total Accumulation (% Control) ([2]; 10 µM) | also measured
1 | COC(c1ccccc1)(c1ccccc1)[C@H](Oc1nc(C)cc(C)n1)C(=O)O [ambrisentan] | 90.3 ± 13.5 | 93.0 ± 9.3 | 101.0 ± 3.5 | 87.2 ± 10.8 | 75.4 ± 8.6 | 88.2 ± 15.5 | 91.3 ± 7.5 | 73.0 ± 8.4 | 65.9 ± 6.8 | 48.8 ± 10.8 | 95.7 ± 6.7 | 39.1 ± 11.9 | 95.1 ± 16.3 | 104.0 ± 3.0 | 110.0 ± 7.6 | 103.0 ± 8.1 | 81.3 ± 11.0 | 83.6 ± 11.6 | 109.0 ± 16.0 | 75.7 ± 8.0 | GCDCA BEI (% Control) ([2]; 100 µM): 76.0 ± 38.1 % Control; GCDCA Cellular Accumulation (% Control) ([2]; 100 µM): 27.6 ± 3.4 % Control; GCDCA Medium Concentration (% Control) ([2]; 100 µM): 103.0 ± 2.3 % Control; GCDCA Total Accumulation (% Control) ([2]; 100 µM): 26.3 ± 5.7 % Control
2 | COc1ccccc1Oc1c(NS(=O)(=O)c2ccc(C(C)(C)C)cc2)nc(-c2ncccn2)nc1OCCO [bosentan] | 85.9 ± 12.6 | 78.4 ± 14.5 | 99.6 ± 2.1 | 71.9 ± 12.9 | 32.3 ± 30.1 | 55.1 ± 14.4 | 85.5 ± 6.3 | 35.9 ± 5.3 | 35.4 ± 13.9 | 25.6 ± 8.4 | 77.1 ± 10.1 | 17.4 ± 6.1 | 94.5 ± 12.4 | 88.0 ± 5.9 | 114.0 ± 9.9 | 86.8 ± 3.5 | 65.7 ± 21.7 | 54.8 ± 4.4 | 109.0 ± 14.7 | 47.2 ± 2.3 | hepatocyte accumulation relative to the extracellular test concentration [3]: ~20 x; GCDCA BEI (% Control) ([2]; 100 µM): 56.8 ± 11.9 % Control; GCDCA Cellular Accumulation (% Control) ([2]; 100 µM): 30.3 ± 6.7 % Control; GCDCA Medium Concentration (% Control) ([2]; 100 µM): 126.0 ± 7.9 % Control; GCDCA Total Accumulation (% Control) ([2]; 100 µM): 25.4 ± 6.0 % Control
3 | CCCNS(=O)(=O)Nc1ncnc(OCCOc2ncc(Br)cn2)c1-c1ccc(Br)cc1 [macitentan] | 96.9 ± 17.6 | 81.7 ± 10.7 | 101.0 ± 3.3 | 84.6 ± 12.6 | 54.9 ± 10.3 | 62.7 ± 10.5 | 88.9 ± 1.8 | 46.5 ± 8.3 | 39.4 ± 12.3 | 38.1 ± 13.6 | 52.6 ± 1.2 | 24.7 ± 7.8 | 98.7 ± 14.8 | 88.7 ± 0.8 | 111.0 ± 9.0 | 90.0 ± 4.0 | 89.4 ± 14.2 | 52.1 ± 2.6 | 98.7 ± 10.1 | 48.9 ± 0.9 | hepatocyte accumulation relative to the extracellular test concentration [3]: > 100 x; hepatocyte accumulation relative to the extracellular test concentration ([3]; listed as Macitentan): ~100 x; GCDCA BEI (% Control) ([2]; 100 µM): 37.5 ± 21.9 % Control; GCDCA Cellular Accumulation (% Control) ([2]; 100 µM): 11.4 ± 3.2 % Control; GCDCA Medium Concentration (% Control) ([2]; 100 µM): 51.8 ± 7.1 % Control; GCDCA Total Accumulation (% Control) ([2]; 100 µM): 8.38 ± 1.4 % Control
